Where two headings read alike, the source gives them in different places.
How the values were obtained:
[1] = Plasma concentration 3 h post dose in murine model of tuberculosis; assay type: in vivo, BALB/c mice infected with M. tuberculosis H37Rv; conditions: TB model
CYP2C19 = CYP2C19 (Homo sapiens, UniProt P33261); experiment: Direct CYP inhibition in human liver microsomes with marker probe substrates; conditions: read-out: Inhibition, IC50; HLM, CYP2C19 probe substrate
CYP2C8 = biological target: T1, CYP2C8 (Homo sapiens, UniProt P10632); experiment: as above; conditions: read-out: Inhibition, IC50; HLM, CYP2C8 probe substrate
T1 sequence (P10632 1-490): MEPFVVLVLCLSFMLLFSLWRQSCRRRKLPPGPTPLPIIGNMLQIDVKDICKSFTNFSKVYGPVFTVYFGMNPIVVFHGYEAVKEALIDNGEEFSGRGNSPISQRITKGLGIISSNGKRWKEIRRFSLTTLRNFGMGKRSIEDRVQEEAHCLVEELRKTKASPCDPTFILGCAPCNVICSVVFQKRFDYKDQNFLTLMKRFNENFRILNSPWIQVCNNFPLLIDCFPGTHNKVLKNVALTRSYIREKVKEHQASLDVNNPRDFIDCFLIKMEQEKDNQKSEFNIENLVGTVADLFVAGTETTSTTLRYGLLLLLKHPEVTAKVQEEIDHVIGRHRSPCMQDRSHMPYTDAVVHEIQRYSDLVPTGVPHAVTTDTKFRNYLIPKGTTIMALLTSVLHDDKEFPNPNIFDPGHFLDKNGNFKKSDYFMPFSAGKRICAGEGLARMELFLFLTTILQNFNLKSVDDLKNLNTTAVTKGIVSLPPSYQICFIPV

[2] = Steady-state plasma pharmacokinetics of BDQ, M2 and TBI-166 in BALB/c mice; conditions: for AUC(0-t): Plasma; for t 1/2: after last dose
[3] = Stability of BDQ, M2 and TBI-166 in mice plasma (LC-MS/MS validation)
CYP3A4 = CYP3A4 (Homo sapiens, UniProt P08684); conditions: for IC50: read-out: Inhibition, IC50, HLM
Chain of CYP3A4 (P08684 2-503): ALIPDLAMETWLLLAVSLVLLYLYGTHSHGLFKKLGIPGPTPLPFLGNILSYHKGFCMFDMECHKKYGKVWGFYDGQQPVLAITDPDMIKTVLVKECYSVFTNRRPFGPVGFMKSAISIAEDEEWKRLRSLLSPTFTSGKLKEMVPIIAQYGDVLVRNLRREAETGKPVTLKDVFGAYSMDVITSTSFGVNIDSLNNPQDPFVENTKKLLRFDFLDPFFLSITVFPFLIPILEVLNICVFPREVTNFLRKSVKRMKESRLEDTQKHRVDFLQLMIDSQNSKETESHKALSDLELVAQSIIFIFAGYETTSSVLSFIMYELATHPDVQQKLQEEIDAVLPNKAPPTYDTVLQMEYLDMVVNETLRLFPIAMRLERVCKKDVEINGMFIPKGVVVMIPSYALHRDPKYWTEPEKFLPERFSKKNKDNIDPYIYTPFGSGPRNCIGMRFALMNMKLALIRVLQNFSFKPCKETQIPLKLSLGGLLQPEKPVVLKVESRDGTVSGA

CYP2A6 = biological target: T2, CYP2A6 (Homo sapiens, UniProt P11509); experiment: Direct CYP inhibition in human liver microsomes with marker probe substrates; conditions: read-out: Inhibition, IC50; HLM, CYP2A6 probe substrate
T2 sequence (P11509 1-494): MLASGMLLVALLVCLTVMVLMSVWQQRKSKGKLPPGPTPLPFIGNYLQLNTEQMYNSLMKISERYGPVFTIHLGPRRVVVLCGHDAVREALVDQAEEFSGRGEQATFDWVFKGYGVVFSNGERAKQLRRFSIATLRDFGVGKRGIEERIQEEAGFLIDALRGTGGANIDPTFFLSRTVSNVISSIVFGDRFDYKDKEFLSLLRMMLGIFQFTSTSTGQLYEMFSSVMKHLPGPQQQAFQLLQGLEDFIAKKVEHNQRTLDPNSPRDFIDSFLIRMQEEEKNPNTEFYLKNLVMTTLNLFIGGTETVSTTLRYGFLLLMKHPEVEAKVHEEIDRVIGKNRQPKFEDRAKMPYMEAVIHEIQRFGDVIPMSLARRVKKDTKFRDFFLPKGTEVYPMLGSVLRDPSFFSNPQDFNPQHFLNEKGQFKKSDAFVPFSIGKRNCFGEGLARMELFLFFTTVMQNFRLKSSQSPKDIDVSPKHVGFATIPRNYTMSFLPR

CYP2C9 = CYP2C9 (Homo sapiens, UniProt P11712); experiment: as above; conditions: read-out: Inhibition, IC50; HLM, CYP2C9 probe substrate
Chain of CYP2C9 (P11712 whole entry): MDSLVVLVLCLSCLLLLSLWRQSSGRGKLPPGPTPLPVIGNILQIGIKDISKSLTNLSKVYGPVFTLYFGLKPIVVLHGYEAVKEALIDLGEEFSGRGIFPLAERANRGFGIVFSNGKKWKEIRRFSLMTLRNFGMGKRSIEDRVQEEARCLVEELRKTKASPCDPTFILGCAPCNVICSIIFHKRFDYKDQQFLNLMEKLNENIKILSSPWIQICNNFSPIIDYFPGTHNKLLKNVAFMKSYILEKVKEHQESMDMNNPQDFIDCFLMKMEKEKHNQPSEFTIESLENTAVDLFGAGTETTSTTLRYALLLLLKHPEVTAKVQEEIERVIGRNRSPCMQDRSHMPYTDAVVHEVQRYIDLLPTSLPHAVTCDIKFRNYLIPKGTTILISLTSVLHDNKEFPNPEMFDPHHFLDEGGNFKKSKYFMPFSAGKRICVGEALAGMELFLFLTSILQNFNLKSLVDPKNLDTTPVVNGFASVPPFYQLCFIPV

CYP2D6 = CYP2D6 (Homo sapiens, UniProt P10635); experiment: as above; conditions: read-out: Inhibition, IC50; HLM, CYP2D6 probe substrate
Chain of CYP2D6 (P10635 whole entry): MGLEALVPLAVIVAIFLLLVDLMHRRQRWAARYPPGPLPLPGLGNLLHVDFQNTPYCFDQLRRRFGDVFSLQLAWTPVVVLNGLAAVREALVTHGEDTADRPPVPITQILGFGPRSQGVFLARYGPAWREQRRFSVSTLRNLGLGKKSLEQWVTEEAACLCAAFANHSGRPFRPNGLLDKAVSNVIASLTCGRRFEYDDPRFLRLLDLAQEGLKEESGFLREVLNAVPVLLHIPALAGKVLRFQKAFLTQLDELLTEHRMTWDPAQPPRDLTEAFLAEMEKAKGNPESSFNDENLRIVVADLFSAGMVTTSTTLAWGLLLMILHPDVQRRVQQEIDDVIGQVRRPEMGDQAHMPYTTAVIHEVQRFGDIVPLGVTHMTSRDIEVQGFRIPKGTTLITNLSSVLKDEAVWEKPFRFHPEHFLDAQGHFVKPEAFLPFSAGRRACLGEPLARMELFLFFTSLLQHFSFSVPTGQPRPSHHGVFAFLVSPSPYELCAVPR

CYP2E1 = CYP2E1 (Homo sapiens, UniProt P05181); experiment: as above; conditions: read-out: Inhibition, IC50; HLM, CYP2E1 probe substrate
Chain of CYP2E1 (P05181 whole entry): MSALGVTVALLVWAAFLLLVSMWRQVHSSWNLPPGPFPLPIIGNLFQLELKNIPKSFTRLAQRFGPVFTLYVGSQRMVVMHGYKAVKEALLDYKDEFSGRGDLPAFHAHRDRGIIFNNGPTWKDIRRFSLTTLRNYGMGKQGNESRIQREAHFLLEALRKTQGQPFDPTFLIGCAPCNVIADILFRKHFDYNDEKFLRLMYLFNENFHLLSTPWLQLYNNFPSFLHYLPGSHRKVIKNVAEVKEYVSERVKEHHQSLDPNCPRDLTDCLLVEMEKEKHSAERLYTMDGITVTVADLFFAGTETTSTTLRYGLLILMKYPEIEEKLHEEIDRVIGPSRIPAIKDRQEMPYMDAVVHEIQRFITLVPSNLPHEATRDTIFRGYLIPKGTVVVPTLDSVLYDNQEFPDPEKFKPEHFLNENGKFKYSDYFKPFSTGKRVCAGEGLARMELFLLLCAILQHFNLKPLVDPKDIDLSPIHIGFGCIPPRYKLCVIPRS

[4] = set-up: method as in Xu et al., 2019; conditions: ref Xu et al., 2019; cited from earlier work
[5] = plasma, TBI-166 group (TBI-166 alone)

Chain of CYP2C19 (P33261 whole entry): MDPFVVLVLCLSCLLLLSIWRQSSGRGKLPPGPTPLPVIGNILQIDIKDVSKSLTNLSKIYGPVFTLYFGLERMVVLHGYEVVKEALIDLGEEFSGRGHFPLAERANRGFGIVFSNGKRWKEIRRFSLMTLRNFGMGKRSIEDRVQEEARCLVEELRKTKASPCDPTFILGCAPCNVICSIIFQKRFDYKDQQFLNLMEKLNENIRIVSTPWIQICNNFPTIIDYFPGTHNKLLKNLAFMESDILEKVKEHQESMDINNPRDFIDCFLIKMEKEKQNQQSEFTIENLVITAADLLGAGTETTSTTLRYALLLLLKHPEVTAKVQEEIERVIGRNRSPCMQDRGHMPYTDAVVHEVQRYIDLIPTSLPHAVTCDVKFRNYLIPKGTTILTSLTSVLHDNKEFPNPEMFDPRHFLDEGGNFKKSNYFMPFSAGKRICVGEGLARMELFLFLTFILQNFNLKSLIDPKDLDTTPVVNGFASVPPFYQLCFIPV

With `COc1ncccc1Nc1cc2nc3ccccc3n(-c3ccc(OC(F)(F)F)cc3)c-2cc1=NC1CCC(OC)CC1` (stereo not shown) [TBI-166, Pyrifazimine] the “Mean plasma concentration at three hours after oral administration” value (“Mean plasma concentration at three hours” for short) ([1]; BDQ + TBI-166 group, W4) was 1.38302 ± 0.41159 µg/mL, the “Mean plasma concentration at three hours” value ([1]; BDQ + TBI-166 group, W8) was 1.3304 ± 0.13372 µg/mL and the “Mean plasma concentration at three hours” value ([1]; BDQ group (25 mg/kg), W4, LLOQ 5, 5, 15 ng/mL for BDQ, TBI-166, M2) was “<LLOQ”. The “Mean plasma concentration at three hours” value ([1]; BDQ group (25 mg/kg), W8, LLOQ 5, 5, 15 ng/mL for BDQ, TBI-166, M2) was “<LLOQ”, the “Mean plasma concentration at three hours” value ([1]; TBI-166 group (20 mg/kg), W4, LLOQ 5, 5, 15 ng/mL for BDQ, TBI-166, M2) was 1.37579 ± 0.12354 µg/mL and the “Mean plasma concentration at three hours” value ([1]; TBI-166 group (20 mg/kg), W8, LLOQ 5, 5, 15 ng/mL for BDQ, TBI-166, M2) was 1.32376 ± 0.31189 µg/mL. The IC50 (CYP2C19) was 4.49 µM, the IC50 (CYP2C8) was > 50 µM and the “C max, p.o. dosage” value ([2]; Cmax observed at human equivalent dose of 20 mg, plasma, mice) was 0.70 µg/mL. The “AUC(0-t)” value ([2]; BDQ + TBI-166 group (Table S4)) was 62.05 ± 2.52 µg·h/mL, the “AUC(0-t)” value ([2]; TBI-166 group (Table S4)) was 68.95 ± 4.84 µg·h/mL and the “AUC(0-last)” value ([2]; plasma, BDQ + TBI-166 group) was 62,050 ± 2,519 h·ng/mL. For the same compound, the “AUC(0-last) as percent of single-drug group” value ([2]; plasma, BDQ + TBI-166 group) was 91%, the “AUC(0-∞)” value ([2]; plasma, BDQ + TBI-166 group) was 103,720 h·ng/mL and the C max ([2]; plasma, BDQ + TBI-166 group) was 709.45 ± 71.13 ng/mL. For the same compound, the “MRT(0-t)” value ([2]; plasma, BDQ + TBI-166 group) was 65.18 h, the T max ([2]; plasma, BDQ + TBI-166 group) was 1 h and the “t 1/2” value ([2]; plasma, BDQ + TBI-166 group (BDQ 25 mg/kg + TBI-166 20 mg/kg, gavage QD 21 days)) was 132.67 h. For the same compound, the “t 1/2” value ([2]; plasma, TBI-166 group (TBI-166 20 mg/kg alone, gavage QD 21 days)) was 142.03 h, the “AUC(0-last)” value [2, 5] was 68,953 ± 4,843 h·ng/mL and the “AUC(0-∞)” value [2, 5] was 119,114 h·ng/mL. For the same compound, the C max [2, 5] was 1,043.84 ± 92.53 ng/mL, the “MRT(0-t)” value [2, 5] was 66.37 h and the T max [2, 5] was 1 h. The “AUC(0-last) as percent of single-drug group” value ([2]; plasma, TBI-166 group (reference)) was 100%, the Cmax ([2]; read-out: C max, p.o. dosage, Cmax observed at human equivalent dose of 20 mg, plasma, mice) was 1.19 µM and the “Stability in mice plasma, RE” value ([3]; 4℃ for 24 h, 15 ng/mL) was -15.07%. For the same compound, the “Stability in mice plasma, RE” value ([3]; 4℃ for 24 h, 75 ng/mL) was 1.87%, the “Stability in mice plasma, RE” value ([3]; 4℃ for 24 h, 750 ng/mL) was -12.65% and the “Stability in mice plasma, RE” value ([3]; -40℃ for 7 d, 15 ng/mL) was -2.20%. For the same compound, the “Stability in mice plasma, RE” value ([3]; -40℃ for 7 d, 75 ng/mL) was -1.01%, the “Stability in mice plasma, RE” value ([3]; -40℃ for 7 d, 750 ng/mL) was -13.53% and the “Stability in mice plasma, RE” value ([3]; Freeze-thaw three cycles, 15 ng/mL) was -14.27%. The “Stability in mice plasma, RE” value ([3]; Freeze-thaw three cycles, 75 ng/mL) was -5.39%, the “Stability in mice plasma, RE” value ([3]; Freeze-thaw three cycles, 750 ng/mL) was -13.50% and the “Stability in mice plasma, RE” value ([3]; In auto-sample for 24 h, 15 ng/mL) was 18.87%. For the same compound, the “Stability in mice plasma, RE” value ([3]; In auto-sample for 24 h, 75 ng/mL) was -12.61%, the “Stability in mice plasma, RE” value ([3]; In auto-sample for 24 h, 750 ng/mL) was -7.77% and the “Stability in mice plasma, RE” value ([3]; Room temperature for 24 h, 15 ng/mL) was -6.20%. The “Stability in mice plasma, RE” value ([3]; Room temperature for 24 h, 75 ng/mL) was -6.81%, the “Stability in mice plasma, RE” value ([3]; Room temperature for 24 h, 750 ng/mL) was -10.81% and the “inhibitor strength class for CYP3A4 pathway” value (CYP3A4; based on IC50 with testosterone) was “moderate (1 µM < IC50 < 10 µM)”. For the same compound, the IC50 (CYP3A4; CYP3A4 MDZ (midazolam as probe substrate)) was 17.4 µM, the IC50 (CYP3A4; CYP3A4 TEST (testosterone as probe substrate)) was 2.65 µM and the IC50 (CYP2A6) was 1.38 µM. The IC50 (CYP2C9) was 5.45 µM, the IC50 (CYP2D6) was 1.6 µM and the IC50 (CYP2E1) was 0.93 µM. For the same compound, the “concentration in liver tissue” value [4] was 32.28 µg/mL.

Source: paper PMC10582325 (Frontiers in Pharmacology, 2023)
